PubChem BioAssay (NCI)
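A five-concentration, 48-hour dose response in 96-well plates underlies each endpoint, interpolated linearly between surrounding concentrations. At the GI50, growth is halved. TGI is the concentration that stops growth completely.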

Legend:
Assay in all cases: NCI anticancer screen, dose series, 48 h
[1] = test system: NCI-H226 lung
[2] = test system: SF-295 CNS
[3] = test system: 786-0 renal
[4] = test system: SN12C renal
[5] = test system: HCT-15 colon
[6] = test system: SK-OV-3 ovarian
[7] = test system: K-562 leukemia

SMILES | TGI [1] | TGI [2] | TGI [3] | TGI [4] | TGI [5] | TGI [6] | TGI [7] | GI50 [1] | GI50 [2] | GI50 [3] | GI50 [4] | GI50 [5] | GI50 [6] | GI50 [7]
CSC[C@H](NC(=O)COc1cccc2cnccc12)C(=O)NC(Cc1ccccc1)C(O)C(=O)N1CSC[C@H]1C(=O)NC(C)(C)C (some centres undefined) | > 100 µM | > 100 µM | > 100 µM | > 100 µM | > 100 µM | > 100 µM | > 100 µM |  |  |  |  |  |  | 
NNc1ncnc2nc[nH]c12 | > 100 µM | > 72.6 µM | > 83.8 µM | > 100 µM | > 100 µM | 28.4 µM | > 100 µM | 5.88 µM | 3.95 µM | 3.03 µM | 7.33 µM | 4.58 µM | 2.63 µM | 3.4 µM
O=c1[nH]c(-c2cccc(F)c2)cc2cc(F)ccc12 | > 100 µM | > 100 µM | > 100 µM | > 100 µM | > 100 µM | > 100 µM | > 100 µM |  | 0.305 µM | 2.87 µM | 1.31 µM | 0.119 µM | 0.616 µM | 0.0698 µM
CNc1cc2oc(=O)cc(C)c2cc1C | > 100 µM | > 100 µM | > 100 µM | > 100 µM | > 100 µM |  | > 100 µM |  |  |  |  |  |  | 
Nc1c(C(=O)Nc2ccccn2)sc2nc3c(cc12)C(=O)CCC3 | > 100 µM | > 100 µM | 44.6 µM | > 100 µM | > 100 µM | > 100 µM | > 100 µM | 3.62 µM | 0.473 µM | 1.33 µM | 3.36 µM | 0.812 µM | 1.41 µM | 0.463 µM
O=c1cccc(C#CC#C[C@@H]2O[C@H]2CO)o1 | 1.4 µM | 9.03 µM | 1.43 µM | 0.915 µM | 3.14 µM | 12.6 µM | > 100 µM | 0.627 µM | 2.64 µM | 0.626 µM | 0.465 µM | 1.42 µM | 4.05 µM | 1.49 µM
COc1cccc2c1O/C(=C\c1ccc([N+](=O)[O-])s1)C2=O | > 100 µM | > 100 µM | > 100 µM |  | 2.34 µM | > 100 µM | 3.05 µM | > 80.6 µM | > 90.5 µM | > 20.6 µM |  | 0.474 µM | > 83.9 µM | 0.349 µM
COc1c(C)c(OCC=C(C)C)cc(CO)c1CO | > 100 µM | > 100 µM | > 100 µM | > 100 µM | > 100 µM | > 100 µM | > 100 µM |  |  |  |  |  |  | 
COc1ccc(CNc2c3ccccc3nc3ccccc23)cc1F | 10.4 µM | 10.4 µM | 13.7 µM | 11.9 µM | 7.8 µM | 16.3 µM | 12.3 µM | 2.85 µM | 2.68 µM | 3.6 µM | 2.93 µM | 2.45 µM | 3.66 µM | 2.94 µM
CCCCCCn1c(-c2ccc(C(=O)O/N=C(\N)c3ccc4c(c3)OCO4)cc2)nc(-c2ccccc2)c1-c1ccccc1 | 15.9 µM | 3.35 µM | 2.56 µM | 4.09 µM | 3.34 µM | 64.3 µM | 5.06 µM | 3.47 µM | 1.69 µM | 1.02 µM | 1.87 µM | 1.61 µM | 10.4 µM | 1.92 µM
CCOC(=O)Nc1c(C)nc2ccccn12 | > 100 µM | > 100 µM | > 100 µM | > 100 µM | > 100 µM | > 100 µM | > 100 µM | > 100 µM | > 100 µM | > 100 µM | > 100 µM | > 100 µM | > 100 µM | > 100 µM
CNc1nc(N)nc(Nc2ccc(I)cc2)c1N=O |  | > 100 µM | > 100 µM | > 100 µM | > 100 µM |  | > 100 µM |  |  |  |  |  |  | 
C=CC12CCN(CC1)C(C(O)c1ccnc3ccc(OC)cc13)C2 (centres undefined) | > 100 µM | > 100 µM | > 100 µM | > 100 µM | > 100 µM | > 100 µM | > 100 µM | > 100 µM | > 100 µM | > 100 µM | > 100 µM | 96.2 µM | > 100 µM | > 100 µM
NC(=O)c1cc(I)ccc1NC(=O)/C=C/c1ccccc1 | 40.3 µM | 3.38 µM | > 68.1 µM | > 63.4 µM | > 100 µM | 12.8 µM | > 100 µM | 1.96 µM | 0.326 µM | 1.32 µM | 0.69 µM | 0.587 µM | 0.604 µM | 0.668 µM
CCN(CCNS(C)(=O)=O)c1ccc(N)c(C)c1 | 32.2 µM | 34.3 µM | 21.9 µM | 23.9 µM | 17.4 µM | 32 µM | 18.4 µM | 15.2 µM | 16.7 µM | 9.76 µM | 11.4 µM | 3.48 µM | 17.9 µM | 3.39 µM
Cc1cc(C(=O)CSC(=S)SC(C)(C)C)ccc1Cl | 42.7 µM | 37.1 µM | 74.4 µM | 43.6 µM | 57.6 µM | 94.5 µM | > 100 µM |  |  |  |  |  |  | 
CCOC(=O)c1c(C)c2c(n1Cc1ccccc1)CSCC2=O | 89.1 µM | 49.5 µM | 63.1 µM | > 100 µM | > 100 µM | > 100 µM | > 100 µM | 20.2 µM | 18 µM | 24.1 µM | 26 µM | 19.7 µM | 23.8 µM | 21.7 µM
C[C@H](CCOc1cccc(CC(=O)O)c1)N(Cc1cccc(C(F)(F)F)c1Cl)CC(c1ccccc1)c1ccccc1 | 21.5 µM | 18.6 µM | 19.4 µM | 18.7 µM | 12.3 µM |  | 52.9 µM | 4.49 µM | 4.44 µM | 5.54 µM | 5.33 µM | 3.25 µM |  | 4.9 µM
COC(=O)c1c(C)cc(OC)c(C/C=C(\C)CCCc2coc(C=C(C)C)c2)c1OC |  | > 100 µM | > 100 µM | > 100 µM | > 100 µM |  | > 100 µM |  |  |  |  |  |  | 
